The source of these data is US12297164B2, “Benzidine compound and application thereof” (Guangzhou IMD therapeutics Co., Ltd., priority 2019, dated 2025).

Common to all, as to assay: Cell-Titer GLO cell inhibition
Type in all cases: cell-based

The subject of test [1] is C4-2B (AR-positive prostate cancer). Particulars: 72 to 144 hours. The text has this: (§1) The inhibition curve was fitted by GraphPad Prism software to obtain IC50.
The test system of test [2] is Du145 (AR-negative prostate cancer). Particulars: Du145.
Text: as §1

The test system of test [3] is 293T (human renal epithelial cell line transfected with adenovirus E1A gene, expressing SV40 large T antigen). Particulars: 293T. How it is done: (§2) Experimental materials: fluorescence signal detection instrument: EnSpire Alpha 2390 multifunctional microplate reader (produced by Perkin Elmer Company); 384-well bottom permeable microwell plate; Cell-Titer GLO luminescent reagent; cancer cells to be tested; medium and fetal bovine serum required for cell culture.
(§3) […]. After incubation with the compound for 72 to 144 hours, Cell-Titer GLO reagent 25-T was added to each well, and the plate was shaken for 20 minutes to lyse the cells. After incubation for 10 minutes, the cells were centrifuged for 1 minute, the signal value of luminescence 384 was measured. The inhibition curve was fitted by GraphPad Prism software to obtain IC50.

Test [4] has as its system VcaP (AR-positive prostate cancer). Particulars: VcaP; 72 to 144 hours; read-out: IC50. How it is done:
as §2, §3

In test [5] the test system is U2OS (osteosarcoma). How it is done:
as §2, §3

For test [6], the system named is Cos7 (African green monkey kidney cells). Particulars: Cos7; read-out: IC50. How it is done:
as §2, §3

Test [7] relates to A549 (non-small cell lung cancer). How it is done: as §2, §3
In test [8] the test system is HT-29 (colon cancer). Particulars: read-out: IC50. How it is done: as §2, §3
Test [9] relates to H1975 (lung cancer cells). Particulars: H1975. How it is done: as §2, §3
Test [10] concerns MV-4-11 (acute leukemia). Particulars: MV-4-11; read-out: IC50. How it is done:
as §2, §3

Test [11] concerns HFL-1 (lung fibroblasts). Particulars: HFL-1; ~ = estimate; read-out: IC50. How it is done: as §2, §3
Test [12] has as its system MCF-7 (ER + breast cancer). Particulars: MCF-7. How it is done: as §2, §3
Test [13] has as its system Hs578T (triple negative breast cancer). Particulars: Hs578T. How it is done: as §2, §3

In general, IC50 refers to the point on the concentration scale where inhibition reaches its midpoint. As to `OC(c1ccc(-c2ccc(CN3CCN(Cc4ccncc4)CC3)cc2)c(F)c1)(C(F)(F)F)C(F)(F)F` [SR2211, reference compound], the IC50 in test [1] is 10.1 µM; in test [2] (72 to 144 hours, ~ = estimate, read-out: IC50), approximately 10 µM; in test [3] (~ = estimate, read-out: IC50), approximately 80 µM; in test [4] it was 37.6 µM; in test [5] (~ = estimate, read-out: IC50), approximately 10 µM; in test [6] it was more than 100 µM. Also, the IC50 is approximately 10 µM in test [7] (~ = estimate, read-out: IC50); more than 50 µM in test [8]; 30.7 µM in test [9] (read-out: IC50); 11.5 µM in [10]; more than 50 µM in [11]; approximately 9.98 µM in test [12] (~ = estimate, read-out: IC50). Besides, the IC50 in test [13] (~ = estimate, read-out: IC50) is approximately 10 µM. Moreover, the “inhibition rate (value in brackets)” value in test [2] is approximately 50%; in test [3] it was 67%; in test [5], 52%; in [7], 55%; in test [9], 41%; in test [12], 42%. The “inhibition rate (value in brackets)” value in test [13] is listed as approximately 50%.
